Converted amounts (≈) assume the structure as drawn. “Also recorded” adds a separate entry of the source.
How the values were obtained:
P388 leukemia cells = assay: Antitumor test in mice implanted with P388 leukemia cells: survival days; format: in vivo, mouse; conditions: for Median of Survival Days: P388 i.p. in CDF1 male mice, control 7 days; for Median of Survival Days / % T/C: 20 mg/kg i.p., 5 consecutive days; for % T/C: median survival days treated × 100 / median of control
Text: ^a) Median of survival days of each treated group (day) ×
100/Median of survival days of control group (day)

[1] = Solubility in water (18 h stirring, filtration, HPLC); conditions: for solubility at 18 h: water
Protocol: 10 mg of each of paclitaxel, 7-GAG-PT, 7-MAG-PT, 10-GAG-DT (α-anomer), 10-GAG-DT (β-anomer) and 10-MAG-DT (α-anomer)was weighed. To those were added 5 ml of water and the mixture was stirred for 18 hours. After completion of the stirring, supernatant was filtered through a membrane filter (0.45 μm), and the filtrate was analyzed by HPLC. The conditions of HPLC analysis were as follows.

[2] = cited from earlier work; for Solubility in water: background statement
[3] = Change in body weight of P388 leukemia cell implanted mice; format: in vivo, mouse; conditions: after i.p. administration
Protocol: FIG. 1 is a graph illustrating effect of taxoid derivatives on the body weight of P388 leukemia cell implanted mouse.
The mice used were 7 weeks age CDFl mice (male). P388 leukemia cells subcultured in DBA/2 mouse abdominal cavity were injected in the abdominal cavity in an amount of 10^6 cells per mouse. In the case of paclitaxel, samples were dissolved in a solution of ethanol:cremophor=1:1 to a concentration of 6 mg/ml and then diluted 30 times with physiological saline. This was administered intraperitoneally in a dose of 0.1 ml/10 g mouse/time. In the case of taxoid derivatives, samples were dissolved in a solution of ethanol:cremophor=1:1 to a concentration of 60 mg/ml and then diluted 30 times with physiological saline. This was administered intraperitoneally in a dose of 0.1 ml/10 g mouse/time.
The tests were performed by administering the sample for consecutive 5 days starting from the day next to the day when the P388 leukemia cells were injected into the abodominal cavity and observing survival days and change in body weight.

[4] = ratio to paclitaxel (0.4 μg/ml)

Compound | solubility at 18 h [1] [µg/mL] | Solubility in water relative to paclitaxel [1] [times] | Median of Survival Days (P388 leukemia cells) [days] | % T/C (P388 leukemia cells) [%] | other results
CC(=O)O[C@@]12CO[C@@H]1C[C@H](O)[C@@]1(C)C(=O)[C@H](OC(=O)COC3O[C@H](CO)[C@H](O)[C@H](O)[C@H]3O)C3=C(C)[C@@H](OC(=O)[C@H](O)[C@@H](NC(=O)OC(C)(C)C)c4ccccc4)C[C@@](O)([C@@H](OC(=O)c4ccccc4)[C@H]21)C3(C)C (stereo partly shown) [10-GAG-DT, Galactosyloxyacetyl-10-docetaxel] |  |  |  |  | Antitumor / physiological activity (P388 leukemia cells; P388 leukemia implanted mice): excellent antitumor activity; Survival effect as compared with paclitaxel (P388 leukemia cells; P388 leukemia implanted mice, ratio to paclitaxel): 1.2 times
CC(=O)O[C@H]1C(=O)[C@]2(C)[C@@H](OC(=O)COC3O[C@H](CO)[C@H](O)[C@H](O)[C@H]3O)C[C@H]3OC[C@@]3(OC(C)=O)[C@H]2[C@H](OC(=O)c2ccccc2)[C@]2(O)C[C@H](OC(=O)[C@H](O)[C@@H](NC(=O)c3ccccc3)c3ccccc3)C(C)=C1C2(C)C (stereo partly shown) [7-GAG-PT, Galactosyloxyacetyl-7-paclitaxel] | 67.8 (≈ 63.1 µM) |  |  |  | Solubility in water relative to paclitaxel [1, 4]: 169 times
CC(=O)O[C@@]12CO[C@@H]1C[C@H](O)[C@@]1(C)C(=O)[C@H](O)C3=C(C)[C@@H](OC(=O)[C@H](O)[C@@H](NC(=O)OC(C)(C)C)c4ccccc4)C[C@@](O)([C@@H](OC(=O)c4ccccc4)[C@H]21)C3(C)C [Docetaxel, docetaxel] |  |  |  |  | Solubility in water of docetaxel relative to taxol ([2]; I. Ringel et al., J. Natl. Cancer Inst., 83, 288 (1991)): 35 times; Solubility in water [2]: very low solubility in water
CC(=O)O[C@@]12CO[C@@H]1C[C@H](O)[C@@]1(C)C(=O)[C@H](OC(=O)CO[C@H]3O[C@H](CO)[C@@H](O)[C@H](O)[C@@H]3O)C3=C(C)[C@@H](OC(=O)[C@H](O)[C@@H](NC(=O)OC(C)(C)C)c4ccccc4)C[C@@](O)([C@@H](OC(=O)c4ccccc4)[C@H]21)C3(C)C [10-MAG-DT (α-anomer), Mannosyloxyacetyl-10-docetaxel] | 1040 (≈ 1010 µM) | 2596 | 9 | 129 | 
CC(=O)O[C@H]1C(=O)[C@@]2(C)[C@H]([C@H](OC(=O)c3ccccc3)[C@]3(O)C[C@H](OC(=O)[C@H](O)[C@@H](NC(=O)c4ccccc4)c4ccccc4)C(C)=C1C3(C)C)[C@]1(OC(C)=O)CO[C@@H]1C[C@@H]2O [Paclitaxel, paclitaxel] |  |  | 10 | 143 | Change in body weight [3]: abrupt decrease in body weight; also recorded: decreased abruptly; Solubility in water [2]: very low solubility in water; also recorded: low solubility in water
CC(=O)O[C@@]12CO[C@@H]1C[C@H](O)[C@@]1(C)C(=O)[C@H](OC(=O)CO[C@@H]3O[C@H](CO)[C@H](O)[C@H](O)[C@H]3O)C3=C(C)[C@@H](OC(=O)[C@H](O)[C@@H](NC(=O)OC(C)(C)C)c4ccccc4)C[C@@](O)([C@@H](OC(=O)c4ccccc4)[C@H]21)C3(C)C [10-GAG-DT (β-anomer), Galactosyloxyacetyl-10-docetaxel] | 301 (≈ 293 µM) | 753 | 12 | 171 | 
CC(=O)O[C@H]1C(=O)[C@]2(C)[C@@H](OC(=O)COC3O[C@H](CO)[C@@H](O)[C@H](O)[C@@H]3O)C[C@H]3OC[C@@]3(OC(C)=O)[C@H]2[C@H](OC(=O)c2ccccc2)[C@]2(O)C[C@H](OC(=O)[C@H](O)[C@@H](NC(=O)c3ccccc3)c3ccccc3)C(C)=C1C2(C)C (stereo partly shown) [7-MAG-PT, Mannosyloxyacetyl-7-paclitaxel] | 103 (≈ 95.9 µM) |  |  |  | Solubility in water relative to paclitaxel [1, 4]: 257 times
CC(=O)O[C@@]12CO[C@@H]1C[C@H](O)[C@@]1(C)C(=O)[C@H](OC(=O)COC3O[C@H](CO)[C@@H](O)[C@H](O)[C@@H]3O)C3=C(C)[C@@H](OC(=O)[C@H](O)[C@@H](NC(=O)OC(C)(C)C)c4ccccc4)C[C@@](O)([C@@H](OC(=O)c4ccccc4)[C@H]21)C3(C)C (stereo partly shown) [10-MAG-DT, Mannosyloxyacetyl-10-docetaxel] |  |  |  |  | Survival effect as compared with paclitaxel (P388 leukemia cells; P388 leukemia implanted mice, versus paclitaxel): substantially equivalent to that of paclitaxel
CC(=O)O[C@@]12CO[C@@H]1C[C@H](O)[C@@]1(C)C(=O)[C@H](OC(=O)CO[C@H]3O[C@H](CO)[C@H](O)[C@H](O)[C@H]3O)C3=C(C)[C@@H](OC(=O)[C@H](O)[C@@H](NC(=O)OC(C)(C)C)c4ccccc4)C[C@@](O)([C@@H](OC(=O)c4ccccc4)[C@H]21)C3(C)C [10-GAG-DT (α-anomer), Galactosyloxyacetyl-10-docetaxel] | 482 (≈ 469 µM) | 1204 | 12 | 171 | 

— patent publication US6306893A, “Taxoid derivatives and process for producing the same” (Ensuiko Sugar Refining Company, Ltd, priority 2000, dated 2001)
